According to the NIST ThermoML archive (doi:10.1021/je050020m):

Experiment: xn = mol fraction of the nth substance listed
Details: 332.94 K, Liquid, Vibrating tube method

CCCCCCCCCC [decane] + O=C=O
Details	mass density [kg/m3]
3024 kPa, x2 = 0.0551	703.63
4011 kPa, x2 = 0.0551	704.59
5026 kPa, x2 = 0.2369	711.09
5040 kPa, x2 = 0.0551	705.62
6015 kPa, x2 = 0.2369	712.23
6062 kPa, x2 = 0.0551	706.62
7009 kPa, x2 = 0.0551	707.53
7015 kPa, x2 = 0.4536	721.74
7019 kPa, x2 = 0.2369	713.38
7978 kPa, x2 = 0.0551	708.43
8020 kPa, x2 = 0.2369	714.47
8025 kPa, x2 = 0.4536	723.26
9016 kPa, x2 = 0.4536	724.72
9017 kPa, x2 = 0.2369	715.56
9037 kPa, x2 = 0.0551	709.44
9992 kPa, x2 = 0.0551	710.31
10015 kPa, x2 = 0.2369	716.65
10023 kPa, x2 = 0.4536	726.15
11009 kPa, x2 = 0.2369	717.69
11014 kPa, x2 = 0.4536	727.55
11032 kPa, x2 = 0.0551	711.27
12001 kPa, x2 = 0.4536	728.9
12005 kPa, x2 = 0.9663	511.9
12013 kPa, x2 = 0.0551	712.13
12015 kPa, x2 = 0.2369	718.74
12511 kPa, x2 = 0.9663	544.43
13003 kPa, x2 = 0.9663	571.24
13015 kPa, x2 = 0.2369	719.76
13027 kPa, x2 = 0.0551	713.03
13045 kPa, x2 = 0.4536	730.28
13998 kPa, x2 = 0.4536	731.55
14011 kPa, x2 = 0.2369	720.77
14015 kPa, x2 = 0.9663	614.37
14018 kPa, x2 = 0.0551	713.89
15000 kPa, x2 = 0.4536	732.81
15003 kPa, x2 = 0.2369	721.75
15021 kPa, x2 = 0.0551	714.75
15026 kPa, x2 = 0.9663	648.23
15997 kPa, x2 = 0.0551	715.59
16019 kPa, x2 = 0.2369	722.73
16032 kPa, x2 = 0.4536	734.14
16035 kPa, x2 = 0.9663	674.85
16998 kPa, x2 = 0.0551	716.44
17015 kPa, x2 = 0.2369	723.7
17018 kPa, x2 = 0.4536	735.36
17018 kPa, x2 = 0.9663	695.62
18016 kPa, x2 = 0.9663	713.48
18021 kPa, x2 = 0.4536	736.57
18026 kPa, x2 = 0.2369	724.66
18031 kPa, x2 = 0.0551	717.29
19002 kPa, x2 = 0.9663	728.62
19004 kPa, x2 = 0.0551	718.07
19012 kPa, x2 = 0.4536	737.79
19022 kPa, x2 = 0.2369	725.6
20002 kPa, x2 = 0.0551	718.88
20002 kPa, x2 = 0.4536	738.93
20012 kPa, x2 = 0.2369	726.51
20033 kPa, x2 = 0.9663	742.59
21014 kPa, x2 = 0.0551	719.68
21022 kPa, x2 = 0.9663	754.63
21024 kPa, x2 = 0.2369	727.44
21028 kPa, x2 = 0.4536	740.14
22021 kPa, x2 = 0.2369	728.35
22021 kPa, x2 = 0.4536	741.29
22027 kPa, x2 = 0.0551	720.5
22029 kPa, x2 = 0.9663	765.58
23009 kPa, x2 = 0.4536	742.44
23010 kPa, x2 = 0.2369	729.26
